In patent publication US9872495B2, “Peptoid oligomers, pharmaceutical compositions and methods of using the same” (priority 2009, dated 2018):
Converted amounts (≈) assume the structure as drawn. Where two headings read alike, the source gives them in different places. Square brackets hold non-standard residues; d marks the D form. Peptide text beside a SMILES is read from it. Gly(N-(CH2)6NH2) = NCCCCCCNCC(=O)O; Gly(N(CH2)3NH2) = NCCCNCC(=O)O; NhArg = N=C(N)NCCCCNCC(=O)O; N(iPr)Gly = CC(C)NCC(=O)O; Nphe = O=C(O)CNCc1ccccc1; Orn = NCCC[C@H](N)C(=O)O; Nleu = CC(C)CNCC(=O)O; Nlys = NCCCCNCC(=O)O

Key:
Assay type in all cases: cell-based
[1] = system: Bacillus subtilis ATCC 6633
Procedure: (§1) Antimicrobial activity was tested against the gram-negative strain Escherichia coli ATCC 25922, and […] strains Staphylococcus aureus ATCC 25923, and Bacillus subtilis ATCC 6633, according to the guidelines given in the document […]-A7 of the CLSI (Clinical and Laboratory Standards Institute; Clinical and Laboratory Standards Institute. Methods for Dilution Antimicrobial Susceptibility Tests for Bacteria That Grow Aerobically-Seventh Edition: Approved Standard CLSI document […]-A7. CLSI, Wayne, USA, 2006). This reference is incorporated herein in its entirety. Hemolytic activity was tested against fresh human erythrocytes.

[2] = system: Escherichia coli ATCC 25922
Procedure: as §1

[3] = system: Staphylococcus aureus ATCC 25923
Procedure: as §1

fresh human erythrocytes = assay: Hemolytic activity
Procedure: Typically, toxicity is evaluated by hemolytic concentration50 (HC50), which measures the concentration of antimicrobial agents at which 50% of the erythrocytes in the culture are lysed. Significant hemolysis, as evaluated by HC50, was detectable only for peptide gramicidin S (40 μg/mL). […] In order to test hemolytic activity of peptoid oligomers further, more stringent parameters were used. Instead of HC50, hemolytic concentration10 (HC10) was used to evaluate hemolytic activity of peptoids used in this study. HC10 represents the concentration of antimicrobial agents where 10% of erythrocytes are lysed. HC10 values were detectable for only four peptoid oligomers. […] Antimicrobial activity was tested against the gram-negative strain Escherichia coli ATCC 25922, and […] strains Staphylococcus aureus ATCC 25923, and Bacillus subtilis ATCC 6633, according to the guidelines given in the document […]-A7 of the CLSI (Clinical and Laboratory Standards Institute; Clinical and Laboratory Standards Institute. Methods for Dilution Antimicrobial Susceptibility Tests for Bacteria That Grow Aerobically-Seventh Edition: Approved Standard CLSI document […]-A7. CLSI, Wayne, USA, 2006). This reference is incorporated herein in its entirety. Hemolytic activity was tested against fresh human erythrocytes.

MIC B. sub ([1]; ATCC 6633) [µg/mL]	MIC E. coli ([2]; ATCC 25922) [µg/mL]	MIC S. aureus ([3]; ATCC 25923) [µg/mL]	SMILES	HC10 (concentration where 10% hemolysis is observed) (fresh human erythrocytes; red cells of human) [µg/mL]	HC50 (concentration where 50% hemolysis is observed) (fresh human erythrocytes; red cells of human) [µg/mL]	MIC B. sub ([1]; B. subtilis ATCC 6633) [µg/mL]	MIC E. coli ([2]; E. coli ATCC 25922) [µg/mL]	MIC S. aureus ([3]; S. aureus ATCC 25923) [µg/mL]	HC10 (concentration where 10% hemolysis is observed) (fresh human erythrocytes; fresh human erythrocytes) [µg/mL]	HC50 (concentration where 50% hemolysis is observed) (fresh human erythrocytes; fresh human erythrocytes) [µg/mL]	HC50 (concentration where 50% hemolysis is observed) (fresh human erythrocytes) [µg/mL]	non-hemolytic up to (concentration) (fresh human erythrocytes) [µg/mL]
>500	>500	>500	NCCCN1CC(=O)N(CCCN)CC(=O)N(Cc2ccccc2)CC(=O)N(CCCN)CC(=O)N(Cc2ccccc2)CC(=O)N(CCCN)CC1=O [Compound 22, C(NapNpm)2Nap2] (cyclo([Nphe][Gly(N(CH2)3NH2)][Nphe][Gly(N(CH2)3NH2)][Gly(N(CH2)3NH2)][Gly(N(CH2)3NH2)]))	>250	>250	–	–	–	–	–	–	–
500 (≈ 638 µM)	>500	500 (≈ 638 µM)	NCCCN1CC(=O)N(Cc2ccccc2)CC(=O)N(CCCN)CC(=O)N(Cc2ccccc2)CC(=O)N(CCCN)CC(=O)N(Cc2ccccc2)CC1=O [Compound 23, C(NapNpm)3] (cyclo([Nphe][Gly(N(CH2)3NH2)][Nphe][Gly(N(CH2)3NH2)][Nphe][Gly(N(CH2)3NH2)]))	>250	>250	–	–	–	–	–	–	–
2 (≈ 1.91 µM)	31.3 (≈ 29.9 µM)	31.3 (≈ 29.9 µM)	NCCCN1CC(=O)N(Cc2ccccc2)CC(=O)N(CCCN)CC(=O)N(Cc2ccccc2)CC(=O)N(CCCN)CC(=O)N(Cc2ccccc2)CC(=O)N(CCCN)CC(=O)N(Cc2ccccc2)CC1=O [Compound 24, C(NapNpm)4] (cyclo([Nphe][Gly(N(CH2)3NH2)][Nphe][Gly(N(CH2)3NH2)][Nphe][Gly(N(CH2)3NH2)][Nphe][Gly(N(CH2)3NH2)]))	>250	>250	–	–	–	–	–	–	≥ 250
0.5 (≈ 0.383 µM)	7.8 (≈ 5.97 µM)	7.8 (≈ 5.97 µM)	NCCCN1CC(=O)N(Cc2ccccc2)CC(=O)N(CCCN)CC(=O)N(Cc2ccccc2)CC(=O)N(CCCN)CC(=O)N(Cc2ccccc2)CC(=O)N(CCCN)CC(=O)N(Cc2ccccc2)CC(=O)N(CCCN)CC(=O)N(Cc2ccccc2)CC1=O [Compound 25, C(NapNpm)5] (cyclo([Nphe][Gly(N(CH2)3NH2)][Nphe][Gly(N(CH2)3NH2)][Nphe][Gly(N(CH2)3NH2)][Nphe][Gly(N(CH2)3NH2)][Nphe][Gly(N(CH2)3NH2)]))	>250	>250	–	–	–	–	–	–	≥ 250
15.6 (≈ 19.1 µM)	500 (≈ 612 µM)	500 (≈ 612 µM)	NCCCN1CC(=O)N(Cc2ccccc2)CC(=O)N(Cc2ccccc2)CC(=O)N(Cc2ccccc2)CC(=O)N(CCCN)CC(=O)N(Cc2ccccc2)CC1=O [Compound 26, C(NpmNap)2Npm2] (cyclo([Nphe][Nphe][Nphe][Gly(N(CH2)3NH2)][Nphe][Gly(N(CH2)3NH2)]))	>250	>250	–	–	–	–	–	–	–

Second part, the molecule before the results:

SMILES	MIC B. sub ([1]; ATCC 6633) [µg/mL]	MIC E. coli ([2]; ATCC 25922) [µg/mL]	MIC S. aureus ([3]; ATCC 25923) [µg/mL]	HC10 (concentration where 10% hemolysis is observed) (fresh human erythrocytes; red cells of human) [µg/mL]	HC50 (concentration where 50% hemolysis is observed) (fresh human erythrocytes; red cells of human) [µg/mL]	MIC B. sub ([1]; B. subtilis ATCC 6633) [µg/mL]	MIC E. coli ([2]; E. coli ATCC 25922) [µg/mL]	MIC S. aureus ([3]; S. aureus ATCC 25923) [µg/mL]	HC10 (concentration where 10% hemolysis is observed) (fresh human erythrocytes; fresh human erythrocytes) [µg/mL]	HC50 (concentration where 50% hemolysis is observed) (fresh human erythrocytes; fresh human erythrocytes) [µg/mL]	HC50 (concentration where 50% hemolysis is observed) (fresh human erythrocytes) [µg/mL]	non-hemolytic up to (concentration) (fresh human erythrocytes) [µg/mL]
CC(=O)N(CC(=O)N(CC(=O)N(CCCN)CC(=O)N(CC(=O)N1CCCC1C(=O)N(CC(=O)N(CC(=O)N(CCCN)CC(=O)N(CC(=O)N1CCCC1C(N)=O)C(C)C)CC(C)C)Cc1ccccc1)C(C)C)CC(C)C)Cc1ccccc1 (stereo not drawn) [Compound 13, Ac(NpmNibNapNipPro)2] (Ac-[Nphe][Nleu][Gly(N(CH2)3NH2)][N(iPr)Gly]P[Nphe][Nleu][Gly(N(CH2)3NH2)][N(iPr)Gly]P-NH2; configuration not given here)	>500	>500	>500	>250	>250	–	–	–	–	–	–	–
CC(=O)N(CCCCN)CC(=O)N(CC(=O)N(CCCCN)CC(=O)N(CC(=O)N(CCCCN)CC(=O)N(CC(N)=O)Cc1ccccc1)Cc1ccccc1)Cc1ccccc1 [Compound 14, Ac(NabNpm)3] (Ac-[Nlys][Nphe][Nlys][Nphe][Nlys][Nphe]-NH2)	>500	>500	>500	>250	>250	–	–	–	–	–	–	–
CC(=O)N(CCCCNC(=N)N)CC(=O)N(CC(=O)N(CCCCNC(=N)N)CC(=O)N(CC(=O)N(CCCCNC(=N)N)CC(=O)N(CC(=O)N(CCCCNC(=N)N)CC(=O)N(CC(=O)N(CCCCNC(=N)N)CC(=O)N(CC(N)=O)CC(c1ccccc1)c1ccccc1)CC(c1ccccc1)c1ccccc1)CC(c1ccccc1)c1ccccc1)CC(c1ccccc1)c1ccccc1)CC(c1ccccc1)c1ccccc1 [Compound 15, Ac(NgbNdp)5]	62.5 (≈ 29.8 µM)	31.3 (≈ 14.9 µM)	62.5 (≈ 29.8 µM)	>250	>250	–	–	–	–	–	–	–
CC(=O)N(CC(=O)N(CCCCNC(=N)N)CC(=O)N(CC(=O)N(CCCCNC(=N)N)CC(=O)N(CC(=O)N(CC(N)=O)CC(c1ccccc1)c1ccccc1)CC(c1ccccc1)c1ccccc1)CC(c1ccccc1)c1ccccc1)CC(c1ccccc1)c1ccccc1 [Compound 16, Ac(NdpNgb)2Ndp2]	–	–	–	–	–	>500	>500	62.5 (≈ 46.3 µM)	250	>250	–	–
CC(C)C[C@@H]1NC(=O)[C@H](CCCN)NC(=O)[C@H](C(C)C)NC(=O)[C@@H]2CCCN2C(=O)[C@@H](Cc2ccccc2)NC(=O)[C@H](CC(C)C)NC(=O)[C@H](CCCN)NC(=O)[C@H](C(C)C)NC(=O)[C@@H]2CCCN2C(=O)[C@@H](Cc2ccccc2)NC1=O [Compound 17, Gramicidin S, reference compound] (cyclo(V[Orn]L[dF]PV[Orn]L[dF]P))	2 (≈ 1.75 µM)	15.6 (≈ 13.7 µM)	15.6 (≈ 13.7 µM)	>15.6	–	–	–	–	–	–	40	–
N=C(N)NCCCCN1CC(=O)N(Cc2ccccc2)CC(=O)N(CCCCNC(=N)N)CC(=O)N(Cc2ccccc2)CC(=O)N(CCCCNC(=N)N)CC(=O)N(Cc2ccccc2)CC1=O [Compound 18, C(NgbNpm)3] (cyclo([Nphe][NhArg][Nphe][NhArg][Nphe][NhArg]))	125 (≈ 131 µM)	250 (≈ 263 µM)	250 (≈ 263 µM)	>250	>250	–	–	–	–	–	–	–
NCCCCCCN1CC(=O)N(Cc2ccccc2)CC(=O)N(CCCCCCN)CC(=O)N(Cc2ccccc2)CC(=O)N(CCCCCCN)CC(=O)N(Cc2ccccc2)CC1=O [Compound 19, C(NahNpm)3] (cyclo([Nphe][Gly(N-(CH2)6NH2)][Nphe][Gly(N-(CH2)6NH2)][Nphe][Gly(N-(CH2)6NH2)]))	500 (≈ 549 µM)	500 (≈ 549 µM)	>500	>250	>250	–	–	–	–	–	–	–
NCCCN1CC(=O)N(CC(c2ccccc2)c2ccccc2)CC(=O)N(CCCN)CC(=O)N(CC(c2ccccc2)c2ccccc2)CC(=O)N(CCCN)CC(=O)N(CC(c2ccccc2)c2ccccc2)CC1=O [Compound 20, C(NapNdp)3]	1 (≈ 0.948 µM)	15.6 (≈ 14.8 µM)	7.8 (≈ 7.4 µM)	>31.3	>250	–	–	–	–	–	–	–
NCCCN1CC(=O)N(Cc2ccc3ccccc3c2)CC(=O)N(CCCN)CC(=O)N(Cc2ccc3ccccc3c2)CC(=O)N(CCCN)CC(=O)N(Cc2ccc3ccccc3c2)CC1=O [Compound 21, C(NapNnm)3]	0.5 (≈ 0.535 µM)	31.3 (≈ 33.5 µM)	31.3 (≈ 33.5 µM)	>250	>250	–	–	–	–	–	–	–
